Several values for one entry are separate records, joined by “and”; a condition that tells them apart may be missing. Identical values can stand only once.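 Each compound was tested at five concentrations against cells in 96-well plates for 48 hours. Here, GI50 denotes the concentration required for 50% inhibition of growth.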 Activity calls are given as the source filed them. Rule as the data show it: active = GI50 up to about 1.1 µM and inactive = higher.
Assays:
Experiment in all cases: NCI anticancer screen, dose series, 48 h
[1] = test system: CAKI-1
[2] = test system: CCRF-CEM
[3] = test system: COLO 205
[4] = test system: EKVX
[5] = test system: HCT-116
[6] = test system: HOP-62
[7] = test system: HT-29
[8] = test system: LOX IMVI
[9] = test system: OVCAR-8
[10] = test system: PC-3
[11] = test system: SF-295
[12] = test system: SF-539
[13] = test system: SK-MEL-28
[14] = test system: SNB-75
[15] = test system: SW-620
[16] = test system: DU-145
[17] = test system: IGROV-1
[18] = test system: NCI-H522
[19] = test system: SR
[20] = test system: TK-10

Measured: GI50

CC1(C)C2CCC1(C)C(N/C(=C(/C(Cl)=C(Cl)Cl)[N+](=O)[O-])n1nnc3ccccc31)C2 (centres undefined)
inactive: [1] 18.6 µM | [2] 21 µM | [3] 18.5 µM | [4] 32.4 µM | [5] 43 µM | [6] 24.9 µM | [7] 39 µM | [8] 33.2 µM | [9] 29.1 µM | [10] 21.1 µM | [11] 24.3 µM | [12] 33.8 µM | [13] 36.7 µM | [14] 28 µM | [15] 27.2 µM

CN1C(=O)CC2CCC(=O)N2c2cccnc21 (centres undefined)
inactive: [1] > 100 µM | [2] > 100 µM | [3] > 100 µM | [16] > 100 µM | [4] > 100 µM | [5] > 100 µM | [6] > 100 µM | [7] > 100 µM | [17] > 100 µM | [8] > 100 µM | [18] > 100 µM | [9] > 100 µM | [11] > 100 µM | [12] > 100 µM | [13] > 100 µM | [19] > 100 µM | [15] > 100 µM | [20] > 100 µM

C=CO/N=[N+](\[O-])N(CC)CC
inactive: [1] > 100 µM | [2] > 100 µM | [3] > 100 µM | [16] > 100 µM | [4] > 100 µM | [5] > 100 µM | [6] > 100 µM | [7] > 100 µM | [17] > 100 µM | [8] > 100 µM | [18] > 100 µM | [9] > 100 µM | [11] > 100 µM | [12] > 100 µM | [13] > 100 µM | [14] > 100 µM | [19] > 100 µM | [15] > 100 µM | [20] > 100 µM

O=C(Nc1ccc(Cl)cc1Cl)c1cc2nc3ccccc3c(=O)n2c2ccccc12
inactive: [1] > 10 µM | [2] > 10 µM | [16] > 10 µM | [4] > 10 µM | [5] > 10 µM | [6] > 10 µM | [7] > 10 µM | [17] > 10 µM | [8] > 10 µM | [18] > 10 µM | [9] > 10 µM | [10] > 10 µM | [11] > 10 µM | [12] > 10 µM | [13] > 10 µM | [15] > 10 µM | [20] > 10 µM

Cc1ccc(S(=O)(=O)ON=C2CC(c3ccccc3)N(C)C(c3ccccc3)C2)cc1 (centres undefined)
inactive: [1] 24.6 µM and 15.6 µM | [2] 18.5 µM and 25.2 µM | [3] 15.6 µM and 14.8 µM | [4] 36.2 µM and 35.2 µM | [5] 15.9 µM and 14.2 µM | [6] 29 µM and 29.8 µM | [7] 20 µM and 20.9 µM | [17] 23.5 µM and 21.4 µM | [8] 13.5 µM and 14 µM | [18] 14.2 µM and 12.1 µM | [9] 17.6 µM and 16.9 µM | [11] 25.9 µM and 25.1 µM | [12] 17.1 µM | [13] 23.8 µM and 22.9 µM | [14] 23.6 µM and 26 µM | [19] 16.9 µM and 21.5 µM | [15] 17.9 µM and 15.5 µM | [20] 21.8 µM and 20.6 µM

CC(C)(C)OC(=O)Nc1nnc(S(N)(=O)=O)s1
inactive: [1] > 100 µM | [2] > 100 µM | [3] > 100 µM | [16] > 100 µM | [4] > 100 µM | [5] > 100 µM | [6] > 100 µM | [7] > 100 µM | [8] > 100 µM | [18] > 100 µM | [9] > 100 µM | [11] > 100 µM | [12] > 100 µM | [13] > 100 µM | [19] > 100 µM | [15] > 100 µM | [20] > 100 µM

Reference: ChEMBL document CHEMBL1201862, “PubChem BioAssay data set” (2004)
